The record followed here is US9884828B2, “Substituted cinnolines as inhibitors of LRRK2 kinase activity” (Imago Pharmaceuticals, Inc., priority 2011, dated 2018).

What is called IC50 is the concentration at which inhibition is half-maximal.

Sequence of recombinant GST-LRRK2 (wild-type) (Q5S007 whole entry): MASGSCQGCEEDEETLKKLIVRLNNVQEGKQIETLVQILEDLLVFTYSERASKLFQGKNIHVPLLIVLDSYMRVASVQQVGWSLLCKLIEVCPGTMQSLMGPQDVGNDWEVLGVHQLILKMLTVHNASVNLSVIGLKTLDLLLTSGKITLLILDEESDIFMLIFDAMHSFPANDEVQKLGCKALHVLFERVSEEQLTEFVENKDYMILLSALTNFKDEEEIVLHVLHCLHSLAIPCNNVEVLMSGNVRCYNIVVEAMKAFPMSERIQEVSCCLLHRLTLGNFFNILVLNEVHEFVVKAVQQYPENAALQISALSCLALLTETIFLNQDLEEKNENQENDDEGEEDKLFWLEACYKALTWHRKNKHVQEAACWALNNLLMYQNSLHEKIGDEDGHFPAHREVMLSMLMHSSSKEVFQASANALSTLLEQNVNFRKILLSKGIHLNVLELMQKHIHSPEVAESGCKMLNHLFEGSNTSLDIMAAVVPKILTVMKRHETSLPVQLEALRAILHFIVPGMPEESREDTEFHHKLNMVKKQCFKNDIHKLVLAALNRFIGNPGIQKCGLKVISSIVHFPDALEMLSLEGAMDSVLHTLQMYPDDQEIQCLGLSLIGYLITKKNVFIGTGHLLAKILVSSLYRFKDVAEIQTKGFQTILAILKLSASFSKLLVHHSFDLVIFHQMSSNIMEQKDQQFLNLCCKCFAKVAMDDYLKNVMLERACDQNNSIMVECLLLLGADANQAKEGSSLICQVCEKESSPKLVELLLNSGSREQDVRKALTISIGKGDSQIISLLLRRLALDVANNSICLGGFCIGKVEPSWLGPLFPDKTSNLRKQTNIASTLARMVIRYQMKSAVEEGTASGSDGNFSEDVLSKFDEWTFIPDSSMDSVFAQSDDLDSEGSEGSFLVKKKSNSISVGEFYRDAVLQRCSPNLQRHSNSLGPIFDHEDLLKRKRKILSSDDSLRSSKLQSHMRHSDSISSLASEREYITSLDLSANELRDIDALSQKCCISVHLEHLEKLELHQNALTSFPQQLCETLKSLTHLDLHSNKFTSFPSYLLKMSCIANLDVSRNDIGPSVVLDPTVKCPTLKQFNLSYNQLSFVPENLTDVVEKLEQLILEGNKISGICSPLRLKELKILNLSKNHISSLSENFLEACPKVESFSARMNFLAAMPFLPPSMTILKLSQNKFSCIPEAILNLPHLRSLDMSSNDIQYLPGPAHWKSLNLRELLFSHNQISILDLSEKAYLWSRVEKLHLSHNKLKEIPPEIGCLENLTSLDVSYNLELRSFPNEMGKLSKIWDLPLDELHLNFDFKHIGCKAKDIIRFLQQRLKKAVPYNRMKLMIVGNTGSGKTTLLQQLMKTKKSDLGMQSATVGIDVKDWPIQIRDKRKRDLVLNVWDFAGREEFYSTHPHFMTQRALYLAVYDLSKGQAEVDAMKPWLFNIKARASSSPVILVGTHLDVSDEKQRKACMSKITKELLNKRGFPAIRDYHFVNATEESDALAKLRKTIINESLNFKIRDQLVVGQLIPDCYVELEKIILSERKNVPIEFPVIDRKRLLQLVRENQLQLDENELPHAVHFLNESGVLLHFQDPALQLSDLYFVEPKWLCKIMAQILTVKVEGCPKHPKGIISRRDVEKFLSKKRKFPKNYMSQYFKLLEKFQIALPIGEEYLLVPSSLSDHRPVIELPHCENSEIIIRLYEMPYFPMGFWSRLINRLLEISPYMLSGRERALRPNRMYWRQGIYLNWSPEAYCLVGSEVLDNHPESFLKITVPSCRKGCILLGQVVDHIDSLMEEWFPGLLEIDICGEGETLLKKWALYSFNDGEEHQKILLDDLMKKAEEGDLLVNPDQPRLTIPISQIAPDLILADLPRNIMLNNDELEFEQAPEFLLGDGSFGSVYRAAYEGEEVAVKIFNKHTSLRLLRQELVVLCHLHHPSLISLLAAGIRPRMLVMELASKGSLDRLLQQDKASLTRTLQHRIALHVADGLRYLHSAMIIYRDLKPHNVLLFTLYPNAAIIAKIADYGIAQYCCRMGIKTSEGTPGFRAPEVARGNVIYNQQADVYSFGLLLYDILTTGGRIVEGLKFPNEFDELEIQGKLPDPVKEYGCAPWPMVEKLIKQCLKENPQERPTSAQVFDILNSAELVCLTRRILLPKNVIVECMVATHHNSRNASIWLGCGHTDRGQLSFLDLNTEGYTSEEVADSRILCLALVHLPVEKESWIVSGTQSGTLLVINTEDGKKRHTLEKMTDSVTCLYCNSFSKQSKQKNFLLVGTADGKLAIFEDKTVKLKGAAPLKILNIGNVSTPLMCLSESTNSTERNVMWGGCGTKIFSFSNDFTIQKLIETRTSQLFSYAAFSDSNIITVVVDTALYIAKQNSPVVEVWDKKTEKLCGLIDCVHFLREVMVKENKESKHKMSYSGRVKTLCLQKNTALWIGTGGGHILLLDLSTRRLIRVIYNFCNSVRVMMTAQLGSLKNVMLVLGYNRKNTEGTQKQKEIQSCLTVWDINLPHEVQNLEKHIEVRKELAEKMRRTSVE

The first assay has as its target recombinant GST-LRRK2 (wild-type) (Homo sapiens (Human), UniProt Q5S007). The experiment in a line: LRRK2 TR-FRET peptide assay (in vitro kinase activity), wild-type. Type of assay: biochemical.
Settings: not given
The method, then:
Compounds as described herein (compounds of Formula I, e.g., compounds of the above Examples) are tested for their in vitro kinase activities using various LRRK2 (including LRRK2 G2019S mutant) assays. […] Serially diluted compounds (1% DMSO as co-solvent) were pre-incubated with recombinant GST-LRRK2 (wild-type, or G2019S mutant, Invitrogen) for 15 minutes at room temperature in 384-well Corning black plates. […] The inhibition of each well was calculated using the control and background readings for that plate. IC50 values were determined from dose-response curves using eight concentrations from the serial dilution of the test compounds.
Consider `C[C@@H](Nc1c(C(N)=O)nnc2cc(-c3ccncc3)ccc12)C1CC1` [Compound 2-100, (R)-4-(1-cyclopropylethylamino)-7-(pyridin-4-yl)cinnoline-3-carboxamide], for which the IC50 was < 6 nM.

Still in this assay, the particulars now being: 100 μM ATP, 100 nM biotin-LRRKtide substrate, 10 nM kinase, 60 minutes at room temperature.
As for `COc1cccc(-c2ccc3c(NC(C)C)c(C(N)=O)nnc3c2)c1` [Compound 2-97, 4-(isopropylamino)-7-(3-methoxyphenyl)cinnoline-3-carboxamide], the IC50 was determined as 46 nM. With `CC[C@@H](C)Nc1c(C#N)nnc2cc(-c3ccc(S(C)(=O)=O)cc3)ccc12` [Compound 2-38, (R)-4-(sec-butylamino)-7-(4-(methylsulfonyl)phenyl)cinnoline-3-carbonitrile], the IC50 worked out at 550 nM. In the case of `CNC(=O)c1nnc2cc(-c3ccc(S(C)(=O)=O)cc3)ccc2c1NC(C)C` [Compound 12-227, 4-(Isopropylamino)-N-methyl-7-(4-(methylsulfonyl)phenyl)cinnoline-3-carboxamide], the IC50 turned out to be 410 nM. On to `NC(=O)c1nnc2cc(-c3ccncc3)ccc2c1NCCO` [Compound 2-137, 4-(2-hydroxyethylamino)-7-(pyridin-4-yl)cinnoline-3-carboxamide], for which the IC50 was 150 nM. Consider `COc1ccc(-n2cccn2)cc1-c1ccc2c(N[C@H](C)C3CC3)c(C(N)=O)nnc2c1` [Compound 9-207, (R)-4-(1-cyclopropylethylamino)-7-(2-methoxy-5-(1H-pyrazol-1-yl)phenyl)cinnoline-3-carboxamide], for which the IC50 was found to be 280 nM.

As to `CC(C)Nc1c(C(N)=O)nnc2cc(-c3ccc(S(C)(=O)=O)cc3)ccc12` [Compound 2-17, 4-(isopropylamino)-7-(4-(methylsulfonyl)phenyl)cinnoline-3-carboxamide], the IC50 was 15 nM. As to `CN(C)c1ccc(-c2ccc3c(N)c(C(N)=O)nnc3c2)cc1` [Compound 1-7, 4-amino-7-(4-(dimethylamino)phenyl)cinnoline-3-carboxamide], the IC50 amounted to 130 nM. Take `CS(=O)(=O)c1ccc(-c2ccc3c(NCC4CC4)c(C(N)=O)nnc3c2)cc1` [Compound 2-92]: the IC50 came to 17 nM. As for `C[C@@H](Nc1c(C(N)=O)nnc2cc(-c3ccc(S(C)(=O)=O)cc3)ccc12)C1CC1` [Compound 2-41, (R)-4-(1-cyclopropylethylamino)-7-(4-(methylsulfonyl)phenyl)cinnoline-3-carboxamide], the IC50 was < 6 nM. On the same count and under the same terms, the figure for `C=C(C)c1ccc2c(N[C@H](C)C3CC3)c(C(=O)NC)nnc2c1` [Compound 14-235, (R)-4-(1-cyclopropylethylamino)-N-methyl-7-(prop-1-en-2-yl)cinnoline-3-carboxamide] is 1600 nM; for `C[C@@H](Nc1c(C(N)=O)nnc2cc(-c3cncc4ccccc34)ccc12)C1CC1` [Compound 2-105, (R)-4-(1-cyclopropylethylamino)-7-(isoquinolin-4-yl)cinnoline-3-carboxamide] it is 380 nM. For the molecule `C[C@@H](Nc1c(C(N)=O)nnc2cc(-c3ccc4c(c3)NC(=O)C4)ccc12)C1CC1` [Compound 2-120, (R)-4-(1-cyclopropylethylamino)-7-(2-oxoindolin-6-yl)cinnoline-3-carboxamide], the IC50 stood at 1 nM. On the same count and under the same terms, the figure for `COc1cc(-c2ncccc2F)ccc1-c1ccc2c(N[C@H](C)C3CC3)c(C(N)=O)nnc2c1` [Compound 11-218, (R)-4-(1-Cyclopropylethylamino)-7-(4-(3-fluoropyridin-2-yl)-2-methoxyphenyl)cinnoline-3-carboxamide] is 43 nM. As to `COc1ccc(N2CCOCC2=O)cc1-c1ccc2c(N[C@H](C)C3CC3)c(C(N)=O)nnc2c1` [Compound 9-209, (R)-4-(1-cyclopropylethylamino)-7-(2-methoxy-5-(3-oxomorpholino)phenyl)cinnoline-3-carboxamide], the IC50 turned out to be 63 nM. Regarding `C[C@@H](Nc1c(C(N)=O)nnc2cc(-c3ccccc3S(C)(=O)=O)ccc12)C1CC1` [Compound 2-123, (R)-4-(1-cyclopropylethylamino)-7-(2-(methylsulfonyl)phenyl)cinnoline-3-carboxamide], the IC50 worked out at 430 nM.
